Test results as given in US6949682B2, “Cinnamaldehyde derivatives inhibiting growth of tumor cell and regulating cell cycle, preparations and pharmaceutical compositions thereof” (Korea Research Institute of Bioscience and Biotechnology, priority 2003, dated 2005).

Experiments:
SW620 colon cancer cell [1] = test: Growth inhibition of SW620 colon cancer cell (GI50); assay type: cell-based, human; details: concentration at which growth of SW620 colon cancer cell was inhibited to the 50%
Procedure: (§1) Colon cancer cell of human SW620(ATCC) or HCT116 (ATCC) was transferred to T25 flask(culture 7.5 ml) by RPMI1640 (Gibco/BR) medium or DMEM medium (Gibco/BR) containing 10% FBS (fetal bovine serum), respectively. Thereafter the cell was incubated for 12 hours at 37° C. in incubator. After the cell was incubated for 12 hours, 7.5 μl of DMSO was added to a culture used as control group, for the final concentration to be 0.1%. In order to use in experiment, samples of various concentrations were prepared by dissolving the cinnamaldehyde derivatives of the present invention in DMSO. 7.5 μl of the prepared samples was added to a culture used as experimental group. Cell of control or experimental group was incubated for 48 hours.
(§2) HCT116 GI50 (μM) and SW620 GI50 (μM) mean to be the concentrations at which growth of HCT116 and SW620 colon cancer cell was inhibited to the 50%, respectively.

HCT116 colon cancer cell [2] = test: Cell cycle analysis (Experimental Example 1), HCT116; assay type: cell-based, human; details: HCT116, 1 μM, 48 hours, percentage of cells in G2/M
Procedure: as §1
(§3) For cell cycle analysis, incubated cell was removed from medium. Thereafter the incubated cell was separated from the flask by trypsin. Thus the cell was centrifuged at 300 g for 5 min. The cell was washed with phosphate buffer solution (PBS) to remove the residue medium from the cell. 3 ml of ethanol (70%) was added to the cell. The cell was fixed by being positioned at −20° C. for 12 hours. The fixed cell was centrifuged at 300 g for 3 min and washed with the cold PBS for two times to remove residual ethanol. The cell solution prepared by adding 500 μl of PBS to the cell was well mixed to produce the homogeneous state. 100 μg/ml RNase A 50 μl was added to the cell solution, thereafter the resulting cell solution was positioned at 37° C. for 30 min. The chromosomal DNA was stained by further adding 1 mg/ml propidium iodide (soluble in PBS) thereto.
(§4) Distribution of cell cycle of 20,000 stained cells were measured by using Becton-Dickinson FACS caliber (San Jose, Calif., USA).

SW620 colon cancer cell [3] = test: Cell cycle analysis (Experimental Example 1), SW620; assay type: cell-based, human; details: SW620, 1 μM, 48 hours, percentage of cells in G2/M
Procedure: as §1, §3, §4

HCT116 colon cancer cell [4] = test: Growth inhibition of HCT116 colon cancer cell (GI50); assay type: cell-based, human; details: concentration at which growth of HCT116 colon cancer cell was inhibited to the 50%
Procedure: as §1, §2

| SMILES | GI50 (SW620 colon cancer cell [1]; Homo sapiens, SW-620) | melting point | G2/M at 1 μM(%) HCT116 (HCT116 colon cancer cell [2]) | G2/M at 1 μM(%) SW620 (SW620 colon cancer cell [3]) | GI50 (HCT116 colon cancer cell [4]; Homo sapiens, HCT-116) | GI50 (SW620 colon cancer cell [1]) | GI50 (HCT116 colon cancer cell [4]) |
| --- | --- | --- | --- | --- | --- | --- | --- |
| O=CC(=Cc1ccc(OC(=O)c2ccccc2)cc1)C(C=O)=Cc1ccc(OC(=O)c2ccccc2)cc1 [Compound 32, 2,3-bis-(4-benzoyloxy-benzylidene)succinaldehyde] | 5.97 µM | 207 to 208 °C | 56% | 52% | 11.9 µM | – | – |
| COc1ccc(COc2ccc(C=C(C=O)C(C=O)=Cc3ccc(OCc4ccc(OC)cc4)cc3)cc2)cc1 [Compound 39, 2,3-bis-(4-(4-methoxybenzyloxy)-benzylidene)succinaldehyde] | 6.8 µM | 218 to 220 °C | 38% | 48% | 3.7 µM | – | – |
| O=CC(=Cc1ccccc1Br)C(C=O)=Cc1ccccc1Br [Compound 4, 2,3-bis-(2-bromobenzylidene)succinaldehyde] | 2.14 µM | 194 to 195 °C | 38% | 36% | 1.05 µM | – | – |
| CCCOc1cccc(/C=C(C=O)/C(C=O)=C/c2cccc(OCCC)c2)c1 [Compound 20, 2,3-bis-(3-propyloxy-benzylidene)succinaldehyde] | 6.74 µM | 93 to 94 °C | 72% | 76% | 2.74 µM | – | – |
| O=CC(=Cc1ccc(OCc2ccccc2)cc1)C(C=O)=Cc1ccc(OCc2ccccc2)cc1 [Compound 31, 2,3-bis-(4-benzyloxy-benzylidene)succinaldehyde] | 7.38 µM | 119 to 120 °C | 64% | 62% | 3.58 µM | – | – |
| CC(C)Oc1ccc(C=C(C=O)C(C=O)=Cc2ccc(OC(C)C)cc2)cc1 [Compound 29, 2,3-bis-(4-isopropyloxy-benzylidene)succinaldehyde] | 1.06 µM | 200 to 202 °C | 49% | 47% | 0.82 µM | – | – |
| O=CC(=Cc1cccc(OCc2ccccc2)c1)C(C=O)=Cc1cccc(OCc2ccccc2)c1 [Compound 22, 2,3-bis-(3-benzyloxy-benzylidene)succinaldehyde] | 3.58 µM | 126 to 127 °C | 68% | 65% | 7.59 µM | – | – |
| O=CC(=Cc1ccc(OC(=O)c2ccccc2F)cc1)C(C=O)=Cc1ccc(OC(=O)c2ccccc2F)cc1 [Compound 33, 2,3-bis-(4-(2-fluorobenzoyloxy)benzylidene)succinaldehyde] | 5.57 µM | 197 to 199 °C | 72% | 71% | 7.43 µM | – | – |
| O=CC(=C\c1ccccc1)/C(C=O)=C/c1ccccc1 [Compound 1, 2,3-bis-benzylidenesuccinaldehyde] | 1.52 µM | 150 to 151 °C | 42% | 45% | 8.39 µM | – | – |
| O=CC(=Cc1cccc(Cl)c1)C(C=O)=Cc1cccc(Cl)c1 [Compound 6, 2,3-bis-(3-chlorobenzylidene)succinaldehyde] | 90.6 µM | 107 to 108 °C | 60% | 66% | 3.62 µM | – | – |
| COc1cc(C=C(C=O)C(C=O)=Cc2ccc(OC(=O)c3ccccc3)c(OC)c2)ccc1OC(=O)c1ccccc1 [Compound 27, 2,3-bis-(4-benzoyloxy-3-methoxy-benzylidene)succinaldehyde] | 13.9 µM | 107 to 110 °C | 79% | 77% | 2.95 µM | – | – |
| COc1cc(C=C(C=O)C(C=O)=Cc2ccc(OC(C)=O)c(OC)c2)ccc1OC(C)=O [Compound 25, 2,3-bis-(4-acetyloxy-3-methoxy-benzylidene)succinaldehyde] | 66.3 µM | 149 to 151 °C | 43% | 48% | 17.7 µM | – | – |
| O=CC(=Cc1ccccc1F)C(C=O)=Cc1ccccc1F [Compound 2, 2,3-bis-(2-fluorobenzylidene)succinaldehyde] | 10.7 µM | 141 to 142 °C | 48% | 58% | 4.02 µM | – | – |
| O=CC(=Cc1cccc(OCc2ccc(Cl)cc2)c1)C(C=O)=Cc1cccc(OCc2ccc(Cl)cc2)c1 [Compound 36, 2,3-bis-(3-(4-chlorobenzyloxy)-benzylidene)succinaldehyde] | 6.3 µM | 193 to 194 °C | 41% | 42% | 7.5 µM | – | – |
| CCCOc1ccc(/C=C(C=O)/C(C=O)=C/c2ccc(OCCC)cc2)cc1 [Compound 28, 2,3-bis-(4-propyloxybenzylidene)succinaldehyde] | 0.55 µM | – | 72% | 70% | 0.82 µM | – | – |
| CC(C)Oc1cccc(C=C(C=O)C(C=O)=Cc2cccc(OC(C)C)c2)c1 [Compound 21, 2,3-bis-(3-isopropyloxy-benzylidene)succinaldehyde] | 0.61 µM | 116 to 117 °C | 75% | 74% | 4.23 µM | – | – |
| COc1ccc(C=C(C=O)C(C=O)=Cc2ccc(OC)c(OC)c2)cc1OC [Compound 8, 2,3-bis-(3,4-dimethoxybenzylidene)succinaldehyde] | 10.5 µM | 149 to 150 °C | 71% | 75% | 5.49 µM | – | – |
| CCCCC(=O)Oc1ccc(C=C(C=O)C(C=O)=Cc2ccc(OC(=O)CCCC)c(OC)c2)cc1OC [Compound 26, 2,3-bis-(4-valeryloxy-3-methoxy-benzylidene)succinaldehyde] | 54 µM | – | 46% | 47% | 11.2 µM | – | – |
| O=CC(=Cc1ccccc1OCc1ccc(Cl)cc1)C(C=O)=Cc1ccccc1OCc1ccc(Cl)cc1 [Compound 17, 2,3-bis-(2-(4-chlorobenzyloxy)-benzylidene)succinaldehyde] | 0.54 µM | 186 to 187 °C | 71% | 76% | 0.84 µM | – | – |
| C=CCOc1ccccc1C=C(C=O)C(C=O)=Cc1ccccc1OCC=C [Compound 14, 2,3-bis-(2-allyloxy-benzylidene)succinaldehyde] | 2.64 µM | 117 to 118 °C | 72% | 76% | 5.28 µM | – | – |
| COc1cc(C=C(C=O)C(C=O)=Cc2ccc(OC(C)C)c(OC)c2)ccc1OC(C)C [Compound 24, 2,3-bis-(4-isopropyloxy-3-methoxy-benzylidene)succinaldehyde] | 0.91 µM | 119 to 120 °C | 48% | 55% | 0.71 µM | – | – |
| O=CC(=Cc1ccc(Cl)cc1)C(C=O)=Cc1ccc(Cl)cc1 [Compound 9, 2,3-bis-(4-chlorobenzylidene)succinaldehyde] | 24.2 µM | 172 to 173 °C | 63% | 67% | 3.62 µM | – | – |
| Cc1ccc(C=C(C=O)C(C=O)=Cc2ccc(C)cc2)cc1 [Compound 11, 2,3-bis-(4-methyl-benzylidene)succinaldehyde] | 5.17 µM | 177 to 178 °C | 40% | 44% | 1.03 µM | – | – |
| O=CC(=Cc1ccc(O)cc1)C(C=O)=Cc1ccc(O)cc1 [Compound 10, 2,3-bis-(4-hydroxy-benzylidene)succinaldehyde] | 1.02 µM | 244 to 246 °C | 61% | 65% | 1.36 µM | – | – |
| CCCCC(=O)Oc1ccc(C=C(C=O)C(C=O)=Cc2ccc(OC(=O)CCCC)cc2)cc1 [Compound 30, 2,3-bis-(4-valeryoxy-benzylidene)succinaldehyde] | – | – | 63% | 65% | – | 65 µM | 21 µM |
